In one assay the test system is DHPS. The assay can be described thus: DHPS enzyme activity in transgenic tubers (O-aminobenzaldehyde method). To be noted: transformed (mutant DHPS) versus control potato tubers. The format is biochemical. How it is done:
Microtubers or mature tubers were homogenised with mortar and pestle in an equal volume of cold 100 mM Tris-HCl pH 7.5 containing 2 mM EDTA, 1.4% sodium ascorbate, 1 mM phenylmethylsulphonilfluoride and 0.5 Tg/ml leupeptin. Following 5 min. centrifugation (16,000 g at 4° C.) the supernatant is collected. DHPS activity was measured using the O-aminobenzaldehyde (O-ABA) method of Yugari and Gilvarg (Yugari, Y. and Gilvarg, C. (1965) J. Biol. Chem. 240: 4710-4716).

Assay [1] deals with dihydrodipicolinate synthase (DHPS). The settings on record: cited from earlier work.
A further assay deals with E. coli DHPS (Escherichia coli, UniProt P0A6L2). The settings on record: read-out: I50 of E. coli DHPS for lysine; cited from earlier work.

SMILES strings stand for the structures.

Sequence of E. coli DHPS (P0A6L2 whole entry): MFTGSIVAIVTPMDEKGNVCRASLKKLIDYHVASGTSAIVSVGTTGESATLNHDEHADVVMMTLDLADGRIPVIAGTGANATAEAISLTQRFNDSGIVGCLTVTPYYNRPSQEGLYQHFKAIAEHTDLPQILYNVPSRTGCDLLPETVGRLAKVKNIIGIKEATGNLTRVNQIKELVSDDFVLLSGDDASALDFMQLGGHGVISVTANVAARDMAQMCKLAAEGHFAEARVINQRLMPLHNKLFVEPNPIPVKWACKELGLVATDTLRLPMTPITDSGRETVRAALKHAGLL

With `NCCSC[C@H](N)C(=O)O` [AEC, S-(2-aminoethyl)-L-cysteine], the “AEC sensitivity of DHPS activity” value in the assay with DHPS is recorded as “reduced”.
`NCCCC[C@H](N)C(=O)O` [lysine]: the “sensitivity of plant DHPS to lysine inhibition relative to E. coli DHPS” value in assay [1] (more sensitive than E. coli DHPS) is given as “about 100 fold”. Besides, in assay [1] (more sensitive than plant lysine-sensitive AKs), the “sensitivity of plant DHPS to lysine inhibition relative to plant lysine-sensitive AKs” value is on record as “about 10 fold”. Moreover, the IC50 on E. coli DHPS was roughly 1000 µM.

The record behind these values is US20030061633A1, “Modified dhps genes” (priority 1999, published 2003).
